Patent US10280174B2, “Salt of fused pyrimidine compound and crystal thereof” (TAIHO PHARMACEUTICAL CO., LTD., priority 2015, dated 2019)

Tests used:
[1] = Moisture absorption/desorption test; format: physicochemical; settings: for characteristic of channel hydrate: absorb/desorb moisture depending on humidity; for weight change at a maximum: humidified at a relative humidity of from 5 to 95%; for Weight change ratio, Adsorption / Weight change ratio, Desorption: 25° C.
Protocol: Moisture absorption/desorption test was carried out with respect to Compound A, monofumarate of Compound A, hemifumarate of Compound A, hemitartrate of Compound A and monophosphate of Compound A, to research the presence or absence of the characteristic of channel hydrate.
In the moisture absorption/desorption test, measurements were carried out according to the following conditions.
A dedicated quartz holder was filled with about from 5 to 10 mg of sample, and a weight of the sample at each humidity was measured and recorded in a continuous manner under the following conditions. Handling of the devices including data processing was based on the method and the process indicated in each device.
Device: VTI SA+ (manufactured by TA Instruments Inc.)
Drying temperature: 60° C.
Temperature rising speed: 1° C./min.
Equilibrium in drying: It is confirmed that no reduction of 0.01 wt % occurs in 5 minutes, in a range not exceeding 300 minutes.
Temperature for measurement: 25° C.
Equilibrium in humidification: It is confirmed that no increase of 0.01 wt % occurs in 5 minutes, in a range not exceeding 120 minutes.
Relative humidity program: Raised by 5% RH from 5% RH to 95% RH, and lowered by 5% RH from 95% RH to 5% RH.

[2] = Solid stability test (acceleration test), 40° C./75% RH; format: physicochemical
Protocol: Solid stability was measured under the following conditions, with respect to monofumarate of Compound A, hemifumarate of Compound A, hemitartrate of Compound A and monophosphate of Compound A which were obtained in the Examples and the Reference Examples, when they were stored for 2 weeks or 4 weeks at 40° C./75% RH (sealed condition and opened condition).
Storage condition: 40° C./75% RH (Sealed and Opened) (Opened refers to a condition where a glass container has the lid removed, and is covered with a KimWipe).
Points of measurement: 2 weeks and 4 weeks
(§1) Storage amount: About 30 mg
(§2) Storage container: Brown glass container
(§3) Method of preparing sample solution: Sample was dissolved in 50% acetonitrile such that a concentration of the sample would be 0.4 mg/mL.
Mass of analogous substance in the sample solution was measured by HPLC analysis. Handling of the devices including data processing was based on the method and the process indicated in each device. (Device: Shimadzu Corporation SIL-HTc/LC-20AB)
Column: InertSustein C18, 4.6×150 mm, 3 μm, manufactured by GL Sciences Inc.
MS detection: ESI positive
Column temperature: 40° C.
Column flow rate: 1.0 mL/min
Mobile phase: A; 10 mmol/L phosphate buffer (pH 6.0): Acetonitrile mixed solution (17:3), B; Acetonitrile
Amount of injection: 5 μL
In the Table, A, B and C refer to percentages of the total mass of analogous substance of less than 0.1%, 0.1% or more and less than 0.5%, and 0.5% or more, respectively. Incidentally, those marked with * were measured at 2 weeks' time and the others were measured at 4 weeks' time.

[3] = Solid stability test (severe test), 60° C.; format: physicochemical; settings: 60° C. (Sealed)
Protocol: Solid stability was measured under the following conditions, with respect to monofumarate of Compound A, hemitartrate of Compound A and monophosphate of Compound A which were obtained in the Examples and the Reference Examples, when they were stored for 2 weeks or 4 weeks at 60° C.
Storage condition: 60° C. (Sealed)
Point of measurement: 2 weeks and 4 weeks
as §1, §2, §3
In the Table, A and B refer to percentages of the total mass of analogous substance of less than 0.1%, and 0.1% or more and less than 0.5%, respectively. Incidentally, the value marked with * was measured at 2 weeks and the others were measured at 4 weeks.

[4] = Blood concentration measurement test after oral administration; settings: mice
Protocol: (§4) These administration solutions were orally administered to mice (Balb/cA) which had been bred under a feeding condition, at a dose of 10 mL per 1 kg body weight, with a sonde for oral administration. After the administration, the mice were returned to a cage for mice and conditions were checked. Inside the cage was provided with a condition where water and food were accessible ad libitum. After 0.25, 0.5, 1, 2, 4 and 6 hours from the administration, the mice were anesthetized with isoflurane, and 60 μL of blood was collected from orbital sinus with a capillary blood collection tube.
(§5) The collected blood was ice cooled, and blood plasma was separated by a centrifugal operation. The mice after the blood collection was returned to an animal breeding cage, and conditions after recovery from the anesthesia were checked. When the last blood collection was finished, the mice were euthanized by cervical dislocation, after a level check of isoflurane anesthesia.
(§6) AUC0-6 hr, Cmax and Tmax were calculated by linear-log trapezoid method with Phoenix WinNonlin (v6.3.0) which is a software manufactured by Pharsight Corporation, from a concentration of Compound A in each blood plasma measured by MRM method with LC-MS/MS.

[5] = system: mouse collagen-induced arthritis model; assay: Mice collagen-induced arthritis model; format: in vivo, DBA/1 mice; settings: 3 mg/kg, positive control, 17 days; FIG. 11
Protocol: The test was carried out in accordance with the method described in Non-Patent Literature (Brand D D, et al., Nat Protoc. 2007; 2, 1269-1275, Xu D. et al., JPET, 2012 April; 341 (1):90-103). Seven-week-old male/DBA/1 mice (CHARLES RIVER LABORATORIES JAPAN, INC.) were intracutaneously injected in the dorsum with 100 μL/body of an equal amount-mixed solution (emulsion) of 4 mg/mL of bovine type 2 collagen solution (Collagen Research Center) and Complete Freund's Adjuvant (DIFCO Inc.) (initial immunization). After 21 days therefrom, the mice were intracutaneously injected in the chine with 100 μL/body of an equal amount-mixed solution (emulsion) of 4 mg/mL of bovine type 2 collagen solution (Collagen Research Center) and Complete Freund's Adjuvant (DIFCO) to provide an additional immunization. The oral administration of 1 time per day was continued for 17 days setting the administration initiation day (day 0) as the eighth day from the additional immunization. Symptoms of arthritis in day 0, day 3, day 7, day 10, day 14 and day 17 were scored macroscopically (0: No change, 1: Swelling of a finger, 2: Swelling of two fingers or more, 3: Swelling of instep, 4: Swelling of all fingers extending wrist/ankle), and a total in four limbs was obtained as a point of individual body (maximum 16 points).

[6] = Research of base addition salts of Compound A (solubility observation); format: physicochemical; settings: water / organic solvent, in words
Protocol: A research was carried out on salt formation with sodium and magnesium, among inorganic bases. Specifically, Compound A was dissolved in an appropriate solvent, and each kind of the bases was added thereto (from 0.5 to 1.5 equivalent), and stirring was carried out for overnight, to thereby determine whether or not a salt formation occurred. As a result, in salt formation with sodium, decomposition remarkably proceeded, and therefore, the research was suspended. From the case of magnesium, hemi magnesium salt of Compound A was obtained (Reference Example 6).

in vivo = settings: Balb/cA, mouse, po, 50 mg/kg
Protocol: as §4, §5, §6

[7] = 50 mg/kg in terms of Compound A, 0.5% HPMC suspension, plasma Compound A

Row | Compound | weight change at a maximum [1] | Weight change ratio, Adsorption ([1]; relative humidity 5%) | Weight change ratio, Desorption ([1]; relative humidity 5%) | Weight change ratio, Adsorption ([1]; relative humidity 20%) | Weight change ratio, Desorption ([1]; relative humidity 20%) | Weight change ratio, Adsorption ([1]; relative humidity 40%) | Weight change ratio, Desorption ([1]; relative humidity 40%) | Weight change ratio, Adsorption ([1]; relative humidity 60%) | Weight change ratio, Desorption ([1]; relative humidity 60%) | Weight change ratio, Adsorption ([1]; relative humidity 80%) | Weight change ratio, Desorption ([1]; relative humidity 80%) | Weight change ratio, Adsorption ([1]; relative humidity 95%) | Weight change ratio, Desorption ([1]; relative humidity 95%) | total mass of analogous substance ([2]; Opened, 4 weeks) | total mass of analogous substance ([2]; Sealed, 4 weeks) | characteristic of channel hydrate [1] | other results
1 | C[C@]12C=CC(=O)C=C1CC[C@@H]1[C@@H]2[C@@H](O)C[C@@]2(C)[C@H]1CC[C@]2(O)C(=O)CO [prednisolone, reference compound] | – | – | – | – | – | – | – | – | – | – | – | – | – | – | – | – | arthritis score [5]: only in a degree of maintaining the raised arthritis score
2 | C=CC(=O)N1CCC[C@@H](n2nc(C(=O)Nc3nc4ccccc4o3)c3c(N)ncnc32)C1.C=CC(=O)N1CCC[C@@H](n2nc(C(=O)Nc3nc4ccccc4o3)c3c(N)ncnc32)C1.[Mg] [hemi magnesium salt of Compound A, (R)-1-(1-acryloylpiperidin-3-yl)-4-amino-N-(benzo[d]oxazol-2-yl)-1H-pyrazolo[3,4-d]pyrimidine-3-carboxamide.hemi magnesium salt] | – | – | – | – | – | – | – | – | – | – | – | – | – | – | – | – | solubility [6]: low solubility to water and to an organic solvent
3 | C=CC(=O)N1CCC[C@@H](n2nc(C(=O)Nc3nc4ccccc4o3)c3c(N)ncnc32)C1 [Compound A, (R)-1-(1-acryloylpiperidin-3-yl)-4-amino-N-(benzo[d]oxazol-2-yl)-1H-pyrazolo[3,4-d]pyrimidine-3-carboxamide] | about 4.4% | 0.42% | 0.67% | 3.08% | 3.20% | 3.60% | 3.65% | 3.88% | 3.88% | 4.09% | 4.11% | 4.39% | 4.39% | – | – | had the characteristic of channel hydrate | AUC(0-t) (in vivo): 5.45 µM·h; Cmax (in vivo): 3.98 µM; Tmax (in vivo): 15 min

Continued, in another order:

Row | weight change at a maximum [1] | Weight change ratio, Adsorption ([1]; relative humidity 5%) | Weight change ratio, Desorption ([1]; relative humidity 5%) | Weight change ratio, Adsorption ([1]; relative humidity 20%) | Weight change ratio, Desorption ([1]; relative humidity 20%) | Weight change ratio, Adsorption ([1]; relative humidity 40%) | Weight change ratio, Desorption ([1]; relative humidity 40%) | Weight change ratio, Adsorption ([1]; relative humidity 60%) | Weight change ratio, Desorption ([1]; relative humidity 60%) | Weight change ratio, Adsorption ([1]; relative humidity 80%) | Weight change ratio, Desorption ([1]; relative humidity 80%) | Weight change ratio, Adsorption ([1]; relative humidity 95%) | Weight change ratio, Desorption ([1]; relative humidity 95%) | total mass of analogous substance ([2]; Opened, 4 weeks) | total mass of analogous substance ([2]; Sealed, 4 weeks) | Compound | characteristic of channel hydrate [1] | other results
4 | about 3.3% | 0.01% | −0.28% | 1.25% | 1.17% | 1.56% | 1.32% | 1.67% | 1.45% | 1.64% | 1.72% | 3.31% | 3.31% | B (0.1% or more and less than 0.5%) | B (0.1% or more and less than 0.5%) | C=CC(=O)N1CCC[C@@H](n2nc(C(=O)Nc3nc4ccccc4o3)c3c(N)ncnc32)C1.C=CC(=O)N1CCC[C@@H](n2nc(C(=O)Nc3nc4ccccc4o3)c3c(N)ncnc32)C1.O=C(O)C(O)C(O)C(=O)O [hemitartrate of Compound A, (R)-1-(1-acryloylpiperidin-3-yl)-4-amino-N-(benzo[d]oxazol-2-yl)-1H-pyrazolo[3,4-d]pyrimidine-3-carboxamide.hemi-L-(+)-tartrate] | had the characteristic of channel hydrate | total mass of analogous substance ([3]; 4 weeks): B (0.1% or more and less than 0.5%)
5 | – | 0.00% | 0.04% | 0.07% | 0.11% | 0.16% | 0.23% | 0.28% | 0.40% | 0.42% | 0.54% | 0.81% | 0.81% | A (less than 0.1%) | A (less than 0.1%) | C=CC(=O)N1CCC[C@@H](n2nc(C(=O)Nc3nc4ccccc4o3)c3c(N)ncnc32)C1.C=CC(=O)N1CCC[C@@H](n2nc(C(=O)Nc3nc4ccccc4o3)c3c(N)ncnc32)C1.O=C(O)/C=C/C(=O)O [hemifumarate of Compound A, (R)-1-(1-acryloylpiperidin-3-yl)-4-amino-N-(benzo[d]oxazol-2-yl)-1H-pyrazolo[3,4-d]pyrimidine-3-carboxamide.hemifumarate] | – | AUC0-6 hr relative to that of Compound A ([4]; 50 mg/kg): about two fold; Cmax relative to that of Compound A ([4]; 50 mg/kg): equivalent to that of Compound A; AUC0-6 hr [4, 7]: 10.32 µM·h; Cmax [4, 7]: 4.22 µM; Tmax [4, 7]: 30 min; mass change (increase) ([1]; relative humidity of 95%): less than 1%; solid stability (in words) ([2]; compared to hemitartrate or monophosphate): excellent solid stabilities
6 | – | 0.01% | 5.76% | 0.19% | 8.06% | 0.36% | 9.29% | 0.61% | 10.38% | 1.29% | 12.12% | 17.90% | 17.90% | – | – | C=CC(=O)N1CCC[C@@H](n2nc(C(=O)Nc3nc4ccccc4o3)c3c(N)ncnc32)C1.O=P(O)(O)O [monophosphate of Compound A, (R)-1-(1-acryloylpiperidin-3-yl)-4-amino-N-(benzo[d]oxazol-2-yl)-1H-pyrazolo[3,4-d]pyrimidine-3-carboxamide.monophosphate] | – | crystal form after the moisture absorption/desorption test [1]: did not maintain the original crystal form; total mass of analogous substance ([2]; Opened, 2 weeks (marked *)): C* (0.5% or more); total mass of analogous substance ([2]; Sealed, 2 weeks (marked *)): C* (0.5% or more); total mass of analogous substance ([3]; 2 weeks (marked *)): B* (0.1% or more and less than 0.5%)
